In patent US11226337B2, “Chemoproteomic profiling of protein electrophilic and oxidative post-translational modifications” (Zenagem, LLC, priority 2017, dated 2022):
“Also recorded” adds a separate entry of the source.

Tests used:
[1] = molecular target: T1, SCRN3 Secernin-3 (Q0VDG4) (Homo sapiens, UniProt Q0VDG4); experiment: SILAC RP-ABPP; assay type: cell-based; conditions: SILAC competition, drug in place of probe 3
T1 construct: shared by both the endogenous and recombinant forms of these proteins; endogenous in cells; host or cells: HEK293T and MDA-MB-231
T1 sequence (Q0VDG4 6-424): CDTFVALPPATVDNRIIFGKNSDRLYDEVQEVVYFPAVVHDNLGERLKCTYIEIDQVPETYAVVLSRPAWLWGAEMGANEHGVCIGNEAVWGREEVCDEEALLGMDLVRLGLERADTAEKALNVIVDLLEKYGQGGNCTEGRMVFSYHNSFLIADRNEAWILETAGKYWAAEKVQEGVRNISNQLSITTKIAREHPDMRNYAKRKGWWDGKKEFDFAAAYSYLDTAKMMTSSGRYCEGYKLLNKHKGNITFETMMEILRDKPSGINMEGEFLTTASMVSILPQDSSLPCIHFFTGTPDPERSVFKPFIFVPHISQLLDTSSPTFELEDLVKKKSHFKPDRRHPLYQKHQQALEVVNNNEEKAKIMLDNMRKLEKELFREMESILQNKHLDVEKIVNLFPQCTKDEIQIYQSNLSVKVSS
Protocol: (§1) Modifications to this protocol included using isotopically ‘light’ and ‘heavy’ SILAC cells that were also grown to near complete confluence prior to treatment. Isotopically light cells were treated with the non-clickable hydrazine probe (at the same concentration as the probe in ‘enrichment’ experiments) or the probe in the presence of 10-fold excess non-clickable hydrazine probe as a competitor (in ‘competition’ experiments). Isotopically heavy cells were treated with the probe for both types of experiments. These treatments were performed in non-SILAC media. Following treatments, cells were washed with cold PBS to remove the probe-containing media, harvested by scraping, collected by centrifugation (1,400 g, 3 min, 4° C.), washed again by resuspension in cold PBS and frozen as pellets at −80° C. until use.
(§2) The fractionated equimolar mixture of heavy and light soluble proteomes (1-1.5 mg) was diluted to 1 mL in PBS. Click reactions were scaled accordingly (except for biotin-azide) to maintain final concentrations of 0.1 mM TBTA, 1 mM CuSO4, 100 μM biotin-azide (10 mM in DMSO) and 1 mM TCEP. The mixture was vortexed and placed on a rotator at ambient temperature for 1 hour. Sequential addition of and mixture with pre-chilled methanol (MeOH, 2 mL), chloroform (CHCl3, 0.5 mL) and PBS (1 mL) on ice quenched the reaction. The precipitated proteome was centrifuged (5,000 g, 10 min, 4° C.) to fractionate the protein interphase from the organic and aqueous solvent layers. The protein pellet was washed with cold 1:1 MeOH:CHCl3 (3×1 mL), mildly sonicated in cold 4:1 MeOH:CHCl3 (2.5 mL) and pelleted once more by centrifugation (5,000 g, 10 min, 4° C.) to ensure click reagents were efficiently removed.
(§3) Heavy and light parent ion chromatograms associated with successfully identified peptides were extracted and compared using CIMAGE software as previously described^69. At least one ion of a co-eluting heavy-light pair must be accurately identified from a fragmentation event that occurred within the retention time window (±10 min) of parent ion elution. To ensure that the correct pair of peaks is quantified, chromatograms are extracted within a 10 ppm error tolerance of the predicted m/z, the signal-to-noise ratio must be >2.5 and the ‘co-elution correlation score’ and ‘envelope correlation score’ must have R^2 values ≥0.8. In addition, peptides detected as ‘singletons,’ where only the heavy ion of a peptide pair was identified, but for which passed all other filtering parameters, are given a default assigned ratio of ‘20,’ which is defined as any measured ratio that is ≥20.
(§4) To further eliminate false positives and any stochastic variability in the data, protein ratios were then determined by the median peptide ratio derived from three or more unique quantified peptides. Protein ratios that complied with these criteria from a single experiment were then averaged with ratios acquired from ≥3 replicates to provide final values for each type of experiment in both cell lines with both probes. […] Probe targets in HEK293T and MDA-MB-231 cells represent data combined from ≥3 independent biological replicates with each cell type performed with several independent batches of synthesized probes over a period of almost two years.
(§5) Two types of experiments were performed—1) direct enrichment of probe 1-labelled proteins from heavy cells in comparison to light control cells treated with the non-clickable hydrazine (3) at the same concentration as 1 (3 mM for 0.5 h); and 2) competition experiments where both heavy and light cells were treated probe 1, but light cells were also treated with 10× competitor 3 (FIG. 3A)—in two different human cell lines (HEK293T cells and the human breast cancer cell line MDA-MB-231).

LGMN Legumain (Q99538) = molecular target: T2, LGMN Legumain (Q99538) (Homo sapiens, UniProt Q99538); experiment: SILAC RP-ABPP; assay type: cell-based; conditions: SILAC competition, drug in place of probe 3
T2 construct: shared by both the endogenous and recombinant forms of these proteins; endogenous in cells; host or cells: HEK293T and MDA-MB-231
T2 sequence (Q99538 18-323): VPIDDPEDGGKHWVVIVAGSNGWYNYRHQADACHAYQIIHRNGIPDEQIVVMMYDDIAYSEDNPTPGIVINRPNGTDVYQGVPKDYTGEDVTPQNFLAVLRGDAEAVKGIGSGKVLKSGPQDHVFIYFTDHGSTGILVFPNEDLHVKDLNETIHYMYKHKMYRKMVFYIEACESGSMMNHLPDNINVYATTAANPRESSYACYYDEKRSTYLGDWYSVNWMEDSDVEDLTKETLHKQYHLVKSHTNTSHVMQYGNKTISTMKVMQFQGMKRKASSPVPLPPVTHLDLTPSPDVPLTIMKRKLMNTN
Protocol: as §1, §2, §3, §4, §5

[2] = molecular target: T3, AMD1 S-adenosylmethionine decarboxylase (P17707) (Homo sapiens, UniProt P17707); experiment: SILAC RP-ABPP; assay type: cell-based; conditions: SILAC competition, drug in place of probe 3
T3 construct: shared by both the endogenous and recombinant forms of these proteins; endogenous in cells; host or cells: HEK293T and MDA-MB-231
T3 sequence (P17707 68-334 limits assumed): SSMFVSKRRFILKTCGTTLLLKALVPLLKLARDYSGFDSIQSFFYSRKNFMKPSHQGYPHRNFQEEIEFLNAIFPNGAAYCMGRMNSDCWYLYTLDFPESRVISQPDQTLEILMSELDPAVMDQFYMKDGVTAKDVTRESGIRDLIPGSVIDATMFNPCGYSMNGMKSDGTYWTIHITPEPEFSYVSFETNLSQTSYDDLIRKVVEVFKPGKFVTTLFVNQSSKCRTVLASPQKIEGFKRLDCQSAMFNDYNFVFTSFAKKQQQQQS
T3 sequence (P17707 1-67 limits assumed): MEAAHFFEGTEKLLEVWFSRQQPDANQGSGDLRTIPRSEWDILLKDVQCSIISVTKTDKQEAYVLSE
Protocol: as §1, §2, §3, §4, §5

[3] = molecular target: T4, SCRN2 Secernin-2 (Q96FV2) (Homo sapiens, UniProt Q96FV2); experiment: SILAC RP-ABPP; assay type: cell-based; conditions: SILAC competition, drug in place of probe 3
T4 construct: shared by both the endogenous and recombinant forms of these proteins; endogenous in cells; host or cells: HEK293T and MDA-MB-231
Protocol: as §1, §2, §3, §4, §5

SCRN3 = molecular target: T5, SCRN3 (Homo sapiens, UniProt Q0VDG4); experiment: gel-based RP-ABPP of transfected HEK293T cells; assay type: cell-based; conditions: transfected HEK293T cells
T5 construct: Full-length genes encoding three probe 1- and one probe 2-targeted proteins were amplified from a cDNA library; expressed in transfected cells; host or cells: HEK293T
T5 sequence (Q0VDG4 6-424): T1 sequence (Q0VDG4 6-424)
Protocol: (§6) Soluble proteomes from treated cells were diluted to 1 mg/mL. To each sample (50 μL), a freshly prepared “click” or CuAAC reagent mixture (6 μL) containing 0.1 mM tris(benzyltriazolylmethyl)amine (TBTA) (3 μL/sample, 1.7 mM in 4:1 DMSO:t-BuOH), 1 mM CuSO4 (1 μL/sample, 50 mM in H2O), 25 μM azide-rhodamine (1 μL/sample, 1.25 mM in DMSO), and freshly prepared 1 mM tris(2-carboxyethyl)phosphine (TCEP) (1 μL/sample, 50 mM in PBS or H2O) was added to conjugate the fluorophore to probe-labelled proteins. TBTA was purchased from TCI and azide-rhodamine was synthesized as previously described^64. Upon addition of the click mixture, each reaction was immediately mixed by vortexing and then allowed to react at ambient temperature for 1 hour before quenching the reactions with SDS loading buffer (4× stock, 17 μL). Proteins (˜25 μg total protein loaded per gel lane) were resolved by SDS-PAGE (10% acrylamide) and visualized by in-gel fluorescence scanning on a Hitachi FMBIO-II or BioRad ChemiDoc MP flatbed fluorescence scanner.
(§7) Full-length genes encoding three probe 1- and one probe 2-targeted proteins were amplified from a cDNA library derived from the same low-passage HEK293T cells used for proteomic profiling. The library was generated using Ribozol RNA extraction (Amresco) and iScript reverse transcription (Bio-rad) supermix reagents. The gene products were cloned into mammalian expression vectors containing N- or C-terminal FLAG affinity tags. The gene for S-adenosyl-L-methionine decarboxylase (AMD1 or AdoMetDC) was cloned into pFLAG-CMV-sport6 (N-terminal tag) at NotI and SalI restriction sites. AMD1, Secernin-3 (SCRN3) and fat mass- and obesity-associated Fe(II)- and 20G-dependent dioxygenase (FTO) were cloned into pRK5 (C-terminal tag) at SalI and NotI restriction sites. Kelch-like ECH-associated protein-1 (Keapl) (N-terminal tag), and empty plasmids of pRK5 were gifts. Full sequences of the genes were confirmed. The proteins expressed via transient transfection in HEK293T cells contain an additional 15 amino acids appended to their N-terminal methionine residue or C-terminus (MDYKD4KLKACGR (SEQ ID NO: 43) and A3G4DYKD4K (SEQ ID NO: 44), respectively). The DYKD4K (SEQ ID NO: 42) appendage in each contains the classic FLAG epitope that permits detection by western blotting or purification by affinity chromatography. Mutants of SCRN3 were generated using QuikChange site-directed mutagenesis with primers containing the desired mutations and their respective compliments. The gene for the deletion mutant of SCRN3 with the sequence MetlCys6-SCRN3 instead of Met1 Glu2Pro3Phe4Ser5Cys6-SCRN3 (SEQ ID NO: 45) was amplified from the wild-type C-terminal FLAG-tagged construct and cloned into the same vector.
(§8) HEK293T cells were grown to ˜40% confluence under standard growth conditions passaged in the appropriate media before adding the appropriate expression vector (control cells (‘mock’) received an equal amount of the appropriate empty vector) and polyethyleneimine (PEI) ‘MAX’ (MW 40,000, Polysciences Inc.) as a transfection reagent under standard transfection conditions (3:1 vector/PEI (w/w) ratio). Cells were incubated for ˜48 h before labelling in situ. Proteomes were processed for gel- and MS-based experiments as described above and in Example 2.
(§9) After scanning fluorescence, that same gel was transferred to nitrocellulose membrane in Towbin buffer, the membrane was blocked for ˜1 hour at ambient temperature with 5% nonfat dry milk (w/v) in Tris-buffered saline with Tween 20 (TBST) and incubated with primary antibodies in the same solution overnight at 4° C. The antibodies included anti-FLAG (1:2500, F1804, Sigma), anti-AdoMetDC (1:500, sc-160951, Santa Cruz Biotechnology) and anti-His6 (1:1000, ab18184, Abcam). The blots were washed (3×5 min, TBST), incubated with secondary antibodies (1:10,000, IRDye 800CW, LICOR) in milk for 1 hour at ambient temperature, washed again (3×5 min, TBST), and visualized on a LICOR Odyssey Scanner.

FTO = molecular target: T6, FTO (Homo sapiens, UniProt Q9C0B1); experiment: gel-based RP-ABPP of transfected HEK293T cells; assay type: cell-based; conditions: transfected HEK293T cells
T6 construct: Full-length genes encoding three probe 1- and one probe 2-targeted proteins were amplified from a cDNA library; expressed in transfected cells; host or cells: HEK293T
Protocol: as §6, §7, §8, §9

KEAP1 = molecular target: T7, KEAP1 (Homo sapiens, UniProt Q14145); experiment: gel-based RP-ABPP of transfected HEK293T cells; assay type: cell-based; conditions: transfected HEK293T cells
T7 construct: Full-length genes encoding three probe 1- and one probe 2-targeted proteins were amplified from a cDNA library; expressed in transfected cells; host or cells: HEK293T
Protocol: as §6, §7, §8, §9

HEK293T cells = experiment: gel-based in situ probe labelling (rhodamine-azide, in-gel fluorescence); assay type: cell-based, human; conditions: probe 1 3 mM, 30 min; dihydrochloride
Protocol: For gel-based experiments, cells were plated and grown to near complete confluence at the time of treatment. Cells were washed with cold phosphate buffered saline (PBS, pH 7.4) and replenished with serum-free DMEM (˜15% of normal passage volume, e.g. a 10 cm plate normally passaged with 10 mL media received 1.5 mL) supplemented with 10 mM Na-HEPES buffer (pH 7.5). Unless otherwise indicated, cells were incubated with probes (3 mM and 1 mM for probes 1 and 2, respectively) in the absence or presence of 10-fold excess non-clickable competitor probes (30 mM and 10 mM for 3 and 4, respectively) for 0.5 hour at 37° C. When applicable, probe and competitor were premixed before co-administering to the cells.
The cells were lysed, and the cell proteomes were conjugated to a rhodamine-azide (Rh—N3) reporter tag.
as §6

AMD1 = molecular target: T8, AMD1 (Homo sapiens, UniProt P17707); experiment: gel-based RP-ABPP of transfected HEK293T cells; assay type: cell-based; conditions: transfected HEK293T cells
T8 construct: Full-length genes encoding three probe 1- and one probe 2-targeted proteins were amplified from a cDNA library; expressed in transfected cells; host or cells: HEK293T
T8 sequence (P17707 68-334 limits assumed): T3 sequence (P17707 68-334 limits assumed)
T8 sequence (P17707 1-67 limits assumed): T3 sequence (P17707 1-67 limits assumed)

| Structure (SMILES) | competition of probe 1 labelling by competitor drug [1] | competition of probe 1 labelling by competitor drug (LGMN Legumain (Q99538)) | competition of probe 1 labelling by competitor drug [2] | competition of probe 1 labelling by competitor drug [3] | blocking of probe labeling by excess non-clickable probe (SCRN3) | blocking of probe labeling by excess non-clickable probe (FTO) | blocking of probe labeling by excess non-clickable probe (KEAP1) | competition of probe 1 labelling by co-administered non-clickable probe (HEK293T cells) | blocking of probe labeling by excess non-clickable probe (AMD1) |
| --- | --- | --- | --- | --- | --- | --- | --- | --- | --- |
| NNC(=O)c1ccncc1 [isoniazid, reference compound] | almost no competition | almost no competition | almost no competition | almost no competition |  |  |  |  |  |
| CCCNN.Cl.Cl [probe 3, Propyl hydrazine dihydrochloride, reference compound] |  |  |  |  | blocked | blocked | blocked | suppressed by increasing concentrations; also recorded: blocks the labeling of proteins by probe 1 | blocked |
| Cl.NNc1ccccc1 [probe 4, phenyl hydrazine hydrochloride, reference compound] |  |  |  |  | blocked | blocked | blocked |  | blocked |
